In ChEMBL document CHEMBL3885881, “DrugMatrix”:

Organism: Rattus norvegicus
Assay: DrugMatrix - Regimen: Daily Repeat
Format: toxicity, organism-based, Sprague-Dawley
Design: regimen Daily Repeat, gender Male, age 6-8 weeks
Conditions: in vivo, po, route oral GAVAGE, […]; for ABSOLUTE BASOPHIL / ABSOLUTE EOSINOPHIL / ABSOLUTE LYMPHOCYTE / ABSOLUTE MONOCYTE / ABSOLUTE SEGMENTED NEUTROPHIL / BASOPHIL / EOSINOPHIL / ERYTHROCYTE COUNT / HEMATOCRIT / HEMOGLOBIN / LEUKOCYTE COUNT / LYMPHOCYTE / MEAN CORPUSCULAR HEMOGLOBIN / MEAN CORPUSCULAR HEMOGLOBIN CONCENTRATION / MEAN CORPUSCULAR VOLUME / MONOCYTE / NEUTROPHIL / NUCLEATED RED BLOOD CELLS / PLATELET COUNT: tissue Blood; for ALANINE AMINOTRANSFERASE / ALBUMIN / ALKALINE PHOSPHATASE / ASPARTATE AMINOTRANSFERASE / BLOOD UREA NITROGEN / CARBON DIOXIDE / CHLORIDE / CHOLESTEROL / CREATINE PHOSPHOKINASE / CREATININE / GLUCOSE / LACTATE DEHYDROGENASE / LIPASE / PHOSPHORUS / POTASSIUM / SODIUM / TOTAL BILIRUBIN / TOTAL PROTEIN / URIC ACID: tissue Plasma
[1] = 0 mg/kg, 72 h, dose level Control, time 3 day
[2] = 0 mg/kg, 120 h, dose level Control, time 5 day
[3] = 0.05 mg/kg, 72 h, dose level Low, time 3 day

Compound: COCc1c(C(C)C)nc(C(C)C)c(/C=C/[C@@H](O)C[C@@H](O)CC(=O)O)c1-c1ccc(F)cc1 [CERIVASTATIN]
- ABSOLUTE BASOPHIL [1]: 0 CELLS/uL
- ABSOLUTE EOSINOPHIL [1]: 0 CELLS/uL
- ABSOLUTE LYMPHOCYTE [1]: 11091.17 CELLS/uL
- ABSOLUTE MONOCYTE [1]: 172.17 CELLS/uL
- ABSOLUTE SEGMENTED NEUTROPHIL [1]: 1186.67 CELLS/uL
- BASOPHIL [1]: 0%
- EOSINOPHIL [1]: 0%
- ERYTHROCYTE COUNT [1]: 5.87 x10E6/uL
- HEMATOCRIT [1]: 36.87%
- HEMOGLOBIN [1]: 14.03 G/DL
- LEUKOCYTE COUNT [1]: 12.45 x10E3/uL
- LYMPHOCYTE [1]: 88.67%
- MEAN CORPUSCULAR HEMOGLOBIN [1]: 23.93 pg
- MEAN CORPUSCULAR HEMOGLOBIN CONCENTRATION [1]: 38.1 G/DL
- MEAN CORPUSCULAR VOLUME [1]: 62.73 fL
- MONOCYTE [1]: 1.5%
- NEUTROPHIL [1]: 9.83%
- NUCLEATED RED BLOOD CELLS [1]: 0 /100WBC
- PLATELET COUNT [1]: 1150.33 x10E3/uL
- ALANINE AMINOTRANSFERASE [1]: 67.17 u/L
- ALBUMIN [1]: 4.03 G/DL
- ALKALINE PHOSPHATASE [1]: 462.5 u/L
- ASPARTATE AMINOTRANSFERASE [1]: 88 u/L
- BLOOD UREA NITROGEN [1]: 13.17 mg/dL
- CARBON DIOXIDE [1]: 29.33 mmol/L
- CHLORIDE [1]: 101 MEQ/L
- CHOLESTEROL [1]: 69.17 mg/dL
- CREATINE PHOSPHOKINASE [1]: 292.5 u/L
- CREATININE [1]: 0.17 mg/dL
- GLUCOSE [1]: 167.5 mg/dL
- LACTATE DEHYDROGENASE [1]: 198.5 u/L
- LIPASE [1]: 10.67 u/L
- PHOSPHORUS [1]: 11.73 mg/dL
- POTASSIUM [1]: 5.91 MEQ/L
- SODIUM [1]: 143.3 MEQ/L
- TOTAL BILIRUBIN [1]: 0.18 mg/dL
- TOTAL PROTEIN [1]: 5.7 G/DL
- URIC ACID [1]: 1.3 mg/dL
- ABSOLUTE BASOPHIL [2]: 0 CELLS/uL
- ABSOLUTE EOSINOPHIL [2]: 64.33 CELLS/uL
- ABSOLUTE LYMPHOCYTE [2]: 12494.67 CELLS/uL
- ABSOLUTE MONOCYTE [2]: 117 CELLS/uL
- ABSOLUTE SEGMENTED NEUTROPHIL [2]: 1340.67 CELLS/uL
- BASOPHIL [2]: 0%
- EOSINOPHIL [2]: 0.33%
- ERYTHROCYTE COUNT [2]: 5.82 x10E6/uL
- HEMATOCRIT [2]: 36.97%
- HEMOGLOBIN [2]: 14.18 G/DL
- LEUKOCYTE COUNT [2]: 14.02 x10E3/uL
- LYMPHOCYTE [2]: 89%
- MEAN CORPUSCULAR HEMOGLOBIN [2]: 24.42 pg
- MEAN CORPUSCULAR HEMOGLOBIN CONCENTRATION [2]: 38.4 G/DL
- MEAN CORPUSCULAR VOLUME [2]: 63.52 fL
- MONOCYTE [2]: 0.83%
- NEUTROPHIL [2]: 9.83%
- NUCLEATED RED BLOOD CELLS [2]: 0 /100WBC
- PLATELET COUNT [2]: 1097.83 x10E3/uL
- ALANINE AMINOTRANSFERASE [2]: 58.83 u/L
- ALBUMIN [2]: 3.92 G/DL
- ALKALINE PHOSPHATASE [2]: 414.17 u/L
- ASPARTATE AMINOTRANSFERASE [2]: 89.17 u/L
- BLOOD UREA NITROGEN [2]: 16.83 mg/dL
- CARBON DIOXIDE [2]: 29.17 mmol/L
- CHLORIDE [2]: 100.33 MEQ/L
- CHOLESTEROL [2]: 54.5 mg/dL
- CREATINE PHOSPHOKINASE [2]: 386.17 u/L
- CREATININE [2]: 0.23 mg/dL
- GLUCOSE [2]: 184.17 mg/dL
- LACTATE DEHYDROGENASE [2]: 229.17 u/L
- LIPASE [2]: 10.83 u/L
- PHOSPHORUS [2]: 10.88 mg/dL
- POTASSIUM [2]: 5.97 MEQ/L
- SODIUM [2]: 142.2 MEQ/L
- TOTAL BILIRUBIN [2]: 0.12 mg/dL
- TOTAL PROTEIN [2]: 5.63 G/DL
- URIC ACID [2]: 1.55 mg/dL
- ABSOLUTE BASOPHIL [3]: 0 CELLS/uL
- ABSOLUTE EOSINOPHIL [3]: 0 CELLS/uL
- ABSOLUTE LYMPHOCYTE [3]: 11310.33 CELLS/uL
- ABSOLUTE MONOCYTE [3]: 175.33 CELLS/uL
- ABSOLUTE SEGMENTED NEUTROPHIL [3]: 1347.67 CELLS/uL
- BASOPHIL [3]: 0%
- EOSINOPHIL [3]: 0%
- ERYTHROCYTE COUNT [3]: 5.68 x10E6/uL
- HEMATOCRIT [3]: 35.3%
- HEMOGLOBIN [3]: 13.6 G/DL
- LEUKOCYTE COUNT [3]: 12.83 x10E3/uL
- LYMPHOCYTE [3]: 88.33%
- MEAN CORPUSCULAR HEMOGLOBIN [3]: 23.97 pg
- MEAN CORPUSCULAR HEMOGLOBIN CONCENTRATION [3]: 38.53 G/DL
- MEAN CORPUSCULAR VOLUME [3]: 62.17 fL
- MONOCYTE [3]: 1.33%
- NEUTROPHIL [3]: 10.33%
- NUCLEATED RED BLOOD CELLS [3]: 0 /100WBC
- PLATELET COUNT [3]: 1230 x10E3/uL
- ALANINE AMINOTRANSFERASE [3]: 65 u/L
- ALBUMIN [3]: 4.07 G/DL
- ALKALINE PHOSPHATASE [3]: 429 u/L
- ASPARTATE AMINOTRANSFERASE [3]: 96.67 u/L
- BLOOD UREA NITROGEN [3]: 15.67 mg/dL
- CARBON DIOXIDE [3]: 25 mmol/L
- CHLORIDE [3]: 103 MEQ/L
- CHOLESTEROL [3]: 64 mg/dL
- CREATINE PHOSPHOKINASE [3]: 269.33 u/L
- CREATININE [3]: 0.13 mg/dL
- GLUCOSE [3]: 169.67 mg/dL
- LACTATE DEHYDROGENASE [3]: 270.33 u/L
- LIPASE [3]: 10 u/L
- PHOSPHORUS [3]: 12.17 mg/dL
- POTASSIUM [3]: 6.2 MEQ/L
- SODIUM [3]: 144.27 MEQ/L
- TOTAL BILIRUBIN [3]: 0.13 mg/dL
- TOTAL PROTEIN [3]: 5.63 G/DL
- URIC ACID [3]: 1.9 mg/dL
